Results on five compounds are retold here after patent US20050181360A1, “Assay for cell cycle modulators based on the modulation of cyclin d1 degradation in response to ionising radiation” (priority 2000, published 2005).

Residues, ends and D or L forms follow the SMILES beside them. *: point of attachment. Cbz = O=C(OCc1ccccc1)*

Common to all, as to format: cell-based
In one test the test system is MCF-7 cells. Put plainly: IR-induced degradation of transfected cyclin mutants, immunoblot. To be noted: transfected MCF-7 cells, IR 20 Gy, two hours. The text has this:
To map the motif in cyclin D1 that mediates its degradation by genotoxic stress we analyzed several mutants of D1 by expression in MCF-7 cells. In all these experiments a co-transfected GFP construct was used to confirm equal transfection efficiencies between irradiated- and control cells. When cyclin D1 was mutated at a site within the cyclin box that is essential for activation of CDK4/6 (mutant K112E), D1 degradation by IR remained. The same result was obtained when the pRb family binding site in cyclin D1 was mutated (LxCxE mutant). We therefore conclude that D1 induced degradation by genotoxic stress is independent of both CDK4/6 kinase and pRb binding.
In the yeast Saccharomyces cerevisiae, degradation of the cyclin C homologue Ume3p can be induced by various stress signals such as heat, oxidative stress and ethanol shock (Cooper et al., 1997; Cooper et al., 1999). Three regions in Ume3p are required for stress-induced degradation, including a destruction box at the amino terminus (RxxL motif), the amino terminal region of the cyclin box and a PEST domain. […] Since cyclin D2 is not degraded by the genotoxic stress response we mutated cyclin D1 to the corresponding amino acid in cyclin D2. […] To further investigate this, we performed a pulse-chase experiment with the cyclin D1 L32A destruction box mutant to determine its half-life. […]

Test [1] has as its system CDK2 activity precipitated from MCF-7/E6 cells. Put plainly: Immunoprecipitation-kinase assay of CDK2 activity after IR (histone H1 substrate). To be noted: two hours after IR, 10 mM cbz-LLL. The protocol:
We next determined the CDK2 activity precipitated from MCF-7/E6 cells treated with IR. Cells were treated as above, except that cells were harvested after 2 hours. […] Identical results were obtained with parental MCF-7 cells. Therefore, protein degradation seems to be necessary for fast CDK2 kinase inhibition after genotoxic stress.
We then examined the CDK2 activity in response to IR of cells transiently over-expressing either D1TA or D1TA-L32A proteins. MCF-7/E6 cells were electroporated as above, irradiated (20 Gy) and harvested 2 hours later. CDK2 protein was immunoprecipitated and its kinase activity was examined using Histone 1 as a substrate (H1). CDK2 protein level was determined by immunoblotting (IB) of the same membrane with an antibody against CDK2.
To determine CDK2 activity, specific complexes from either MCF-7/Neo or MCF-7/E6 cells were immunoprecipitated from extracts using anti-CDK2 antibody (M-2). The beads were washed two additional times with kinase buffer (20 mM Tris HCl pH:7.4, 4 mM MgCl2 and 0.5 mM DTT) and kinase reaction was carried out in […] volume kinase buffer containing […] histone-H1 as a specific substrate, […] [γ-^32P]-ATP (5000 mCi/mmol, Amersham) and […] ATP at 37 C for 30 minutes. GSK3-β activity, was determined exactly as described in (van Weeren et al., 1998) using peptide PG-S1 as a substrate.

The subject of test [2] is cyclin D1 protein in MCF-7 cells. Put plainly: IR-induced cyclin D1 downregulation with proteasome inhibitor, Western blot. As to conditions: 5 mM cbz-LLL added after IR for two hours. As to the method: (§1) We then asked whether cyclin D1 protein stability was affected in response to IR using a pulse-chase experiment. MCF-7 cells were pulse-labelled with [^35S]-methionine and after IR chased with excess cold methionine for the indicated periods of time. Cyclin D1 protein was immunoprecipitated, separated on SDS-PAGE and detected by PhosphorImager. Cyclin D1 was destabilized immediately after IR; its half-life decreased from 40 minutes to less then 20 (FIG. 2). To ask whether the IR-induced degradation of cyclin D1 is mediated by the proteasome, MCF-7 cells were exposed to IR and subsequently the proteasome inhibitor cbz-LLL was added at increasing concentrations for two hours. After two hours, protein lysates were made, separated on 10% SDS PAGE, and Western blotted sequentially with antibodies against cyclin D1, p53 and cyclin E proteins.

For the next test, the system named is cyclin D1 protein. Put plainly: Cyclin D1 degradation in response to genotoxic agents. The protocol:
as §1

The test system of test [3] is cyclin D1 protein in MCF-7 cells. Put plainly: Effect of GSK3 inhibition by Li+ on IR-induced cyclin D1 degradation, immunoblot. An excerpt: Activation of the PI3K-PKB/Akt-GSK-3β pathway leads to cyclin D1 degradation through phosphorylation of threonine 286 of cyclin D1 by GSK3-β (Diehl et al., 1998). We therefore asked whether this pathway is also activated by IR and is involved in stress-induced degradation of cyclin D1. To investigate the co-immunoprecipitation of GSK3-β with CDK4-cyclin D1 complex, MCF-7 cells were subjected to treatment with proteasome inhibitor cbz-LLL and IR. 5% of the cell lysates or the immunoprecipitated protein complexes were separated on 10% SDS-PAGE and immunoblotted against cyclin-D1, CDK4, GSK3- and control JNK1 proteins. […] We used proteasome inhibitors to protect cyclin D1 from degradation thereby making a direct comparison between the different treatments possible. […] MCF-7 cells were treated with increasing concentrations of LiCl or control KCl and subsequently IR (20 Gy). Lysates were prepared after 2 hours, separated on 10% SDS-PAGE and immunoblotted sequentially with anti-cyclin D1 and anti-p53 antibodies. If this pathway is involved, Li^+ ions should inhibit cyclin D1 degradation.
On the technique in general: A western blot detects proteins with antibodies after separation by electrophoresis.

For “T286A: cyclin D1 mutant in which the GSK3-β phosphorylation site was mutated”, in the test with MCF-7 cells, the “degradation by IR” value is on record as “fully responsive”.

In the case of `CC(C)C[C@@H](C=O)NC(=O)[C@H](CC(C)C)NC(=O)[C@H](CC(C)C)NC(=O)OCc1ccccc1` [cbz-LLL] (Cbz-Leu-Leu-Leu-aldehyde), the “IR-induced reduction of CDK2 activity” value in test [1] is listed as “blocked”. Also, in test [2], the “block of cyclin D1 downregulation by IR” value is “completely block” and the “effect on cyclin E protein levels” value is on record as “without any effect”.

With `N.N.[Cl][Pt][Cl]` [cis-platin], the “cyclin D1 degradation in response to genotoxic agent” value with cyclin D1 protein is “rapidly degraded”.

Consider “K112E: cyclin D1 mutated within the cyclin box at a site essential for activation of CDK4/6”, for which the “degradation by IR” value with MCF-7 cells is on record as “remained”.

On to `[Cl-].[Li+]` [Li^+ ions, LiCl], for which the “effect on cyclin D1 degradation by IR” value in test [3] (increasing concentrations of LiCl, IR 20 Gy, lysates after 2 hours) is given as “no detectable effect”. For the same compound, in test [3] (non-irradiated MCF-7 cells), the “cyclin D1 levels in non-irradiated cells” value is listed as “increase”.
